Experimental data published in article PMC8895403, “A Strategy to Select Macrocyclic Peptides Featuring Asymmetric Molecular Scaffolds as Cyclization Units by Phage Display” (Journal of the American Chemical Society, 2022).
Read-outs that look alike come from different tables or passages of the source. Numbered stars: 1 amine (or outer) side, 2 acyl side, 3 side chain; on linkers, the order of the positions; unused ones are H or OH. Bridge positions count the residues as written; N and C are the ends. Square brackets hold non-standard residues; d marks the D form. Ends that are not written are not given here. Peptide text beside a SMILES is read from it. * marks the point of attachment. X1 = COc1ccc(CN([C@@H](C)C(=O)[*:2])[*:1])cc1N[*:3]; X3 = COc1ccc(CO)cc1NC(=O)C*; X2 = O=C(C[*:2])[*:1]

Key:
streptavidin [1] = target: T1, streptavidin (Streptomyces avidinii, UniProt P22629); test: HABA competition binding assay (competitive ligand-binding analysis); details: for Kd: read-out: Kd,app
T1 sequence (P22629 25-183): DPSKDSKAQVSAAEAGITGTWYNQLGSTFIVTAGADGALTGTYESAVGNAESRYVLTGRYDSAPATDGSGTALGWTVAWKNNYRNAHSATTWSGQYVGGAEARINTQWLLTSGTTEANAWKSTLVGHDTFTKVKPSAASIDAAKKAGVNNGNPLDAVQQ
Description: To pinpoint the binding mode of SAV_1–3 variants, we first synthesized the linear precursors and then prepared their modified and cyclized versions (Figure S13). […] To further elucidate the role of the free aldehyde for binding, we additionally prepared SAV_1–3 peptides that were modified with cyclization units bearing an alcohol moiety instead (Figures 6b and S13). […]
In vitro affinity measurements: To determine the affinity of the selected peptides for Streptavidin, a competitive binding experiment was performed similarly to previously described literature procedures.[7] In brief, for the competitive binding experiment, increasing amounts of peptide (final concentration 0.01 – 500 μM in 12.5% ACN + 0.1% TFA in PBS phosphate buffered saline (PBS, 137 mM NaCl, 2.7 mM KCl, 10 mM Na2HPO4, 2 mM […]
Streptavidin monomer (final concentration 1.5 mM/ 40 µM (SAV_1), 33 µM (SAV_2), 32 µM (SAV_3)). The reactions were allowed to reach equilibrium at room temperature (60 min.) and […]
IC50 values were obtained by fitting the average of three measurements to equation 1:
A = A + A500nm,max − A500nm,min (1) […]
where, A500nm is the measured absorbance at unbound peptide concentration, [L], and H is the Hill coefficient (H = 1 assumed for streptavidin-binding peptides). A500nm,min corresponds to the value measured in presence of 1 mM biotin and A500nm,max corresponds to absorbance values measured in absence of the peptide.
The Kd values for SAV_1_mod, SAV_1_cycl, and SAV_2_mod, SAV_1S_mod, and SAV_1S_cycl were obtained from their respective IC50 values using equation 2: […]

streptavidin [2] = target: T1, streptavidin; test: Biopanning of phages displaying SAV_1-3 against streptavidin (recovery rates from phage titers); assay type: binding; details: for recovery rate / retention after biopanning against streptavidin (in words): phages subjected to cyclization conditions, compared with linear and modified
Description: To independently verify that our strategy selects peptide binders, we first produced phages displaying SAV_1–3. Next, we performed the modification and cyclization reactions as described previously and determined phage titers before and after biopanning against streptavidin for phages featuring the linear precursor, the modified and cyclized peptides (Figure S12, see the Supporting Information for details). Consistent with the selection of peptide binders upon addition of our bifunctional cyclization units, the recovery rates for linear precursors were the lowest for all three peptides (Figure 6A). […] Featuring a reactive aldehyde moiety, this apparently higher affinity of the modified analogue of SAV_2 could be the result of the transient formation of an iminium ion via condensation with either the N-terminal amine or a lysine side chain of streptavidin.
Production of SAV_1-3 displaying bacteriophages: To validate the selection of cyclic peptide binders over their linear, and modified counterparts, phages displaying the peptide sequences of the […] most enriched hits SAV_1, SAV_2 and SAV_3 were panned against streptavidin either in linear, modified or cyclic peptide form. Phage titers pre- and post-streptavidin panning were determined and compared between all the samples.
In brief, 700 μL of densely grown E. coli TG1 overnight cultures harboring the […]
-fd plasmid (SAV_1), […]-fd plasmid (SAV_2) and
-fd plasmid (SAV_3) respectively, were used to inoculate 500 mL 2xYT-medium containing 30 μg/mL chloramphenicol. After incubation overnight (30 °C at 190 rpm) phage particles were purified and all cysteines were reduced with TCEP as described in Section
9. At this point the phage samples were split into 3 fractions of 2.5 mL. One sample was stored at 4 °C as ‘linear phage’ sample, the other two samples were modified with scaffold 3 (SAV_1 and SAV_2) or scaffold 4 (SAV_3) and purified as described in Section 9. […] Phage titers of these samples were determined ( Figure S12A) and all samples were diluted to approximately […] colony forming units using reduction buffer. […]

For COc1ccc(CO)cc1NC(=O)CSC[C@H](NC(=O)[C@H](C)NC(=O)[C@@H]1CSCC(=O)Nc2cc(ccc2OC)CN[C@@H](C)C(=O)N[C@@H](Cc2c[nH]c3ccccc23)C(=O)N[C@@H](Cc2c[nH]c3ccccc23)C(=O)N[C@@H]([C@@H](C)O)C(=O)N[C@@H](CC(N)=O)C(=O)N[C@@H](CC(=O)O)C(=O)N[C@@H](Cc2ccccc2)C(=O)N1)C(=O)N[C@@H](C)C(N)=O [cyclic SAV_1] (H-[X1]WWTNDFCAC(X3)A-NH2; linker 1-8 via X2), which “factor/fold advantage in Kd,app of cyclic peptide over aldehyde-modified peptide” value (streptavidin [1]; cyclic vs aldehyde-modified form of the same sequence) is on record?
The value was ~20.

COc1ccc2cc1NC(=O)CSC[C@@H](C(=O)N[C@@H](C)C(N)=O)NC(=O)[C@H](Cc1ccccc1)NC(=O)[C@H](CC(=O)O)NC(=O)[C@H](CC(N)=O)NC(=O)[C@H]([C@@H](C)O)NC(=O)[C@H](Cc1c[nH]c3ccccc13)NC(=O)[C@H](Cc1c[nH]c3ccccc13)NC(=O)[C@H](C)NC2 [cyclic SAV_1S] (H-[X1]WWTNDFCA-NH2; linker 1-8 via X2) was tested. Which Kd (streptavidin [1]; cyclic peptide) did it give?
Its Kd is 0.164 ± 0.078 µM.

Which Kd (streptavidin [1]; aldehyde-modified peptide (Figure 6b, column 3), >10 μM given where no saturation) does the source give for AWWTNDFCA-NH2 [SAV_1S] here?
Its Kd is 5.16 ± 0.59 µM.

And the Kd (streptavidin [1]; cyclic peptide (Figure 6b, column 4), >10 μM given where no saturation)?
The Kd was 0.164 ± 0.078 µM.

And the Kd (streptavidin [1]; linear precursor peptide (Figure 6b, column 1), >10 μM given where no saturation)?
Its Kd is > 10 µM.

Which results are given for C[C@H](N)C(=O)N[C@@H](Cc1c[nH]c2ccccc12)C(=O)N[C@@H](Cc1c[nH]c2ccccc12)C(=O)N[C@@H](CCC(=O)O)C(=O)N[C@@H](CC(=O)O)C(=O)N[C@@H](CCCNC(=N)N)C(=O)NCC(=O)N1CCC[C@H]1C(=O)N1CCC[C@H]1C(=O)N[C@@H](CS)C(=O)N[C@@H](C)C(N)=O [SAV_2]?
recovery rate after biopanning against streptavidin (in words) (streptavidin [2]; phages with modified (aldehyde) peptide, compared with linear and cyclized): highest recovery rates; affinity for streptavidin in the competition assay (in words) (streptavidin [1]; form of the peptide as worded at the place): the cyclic peptide did not display any affinity

C[C@H](N)C(=O)N[C@@H](Cc1c[nH]c2ccccc12)C(=O)N[C@@H](Cc1c[nH]c2ccccc12)C(=O)N[C@H](C(=O)N[C@@H](CC(N)=O)C(=O)N[C@@H](CC(=O)O)C(=O)N[C@@H](Cc1ccccc1)C(=O)N[C@@H](CS)C(=O)N[C@@H](C)C(=O)N[C@@H](CS)C(=O)N[C@@H](C)C(N)=O)[C@@H](C)O [SAV_1] was tested. Which “recovery rate / retention after biopanning against streptavidin (in words)” value (streptavidin [2]) did it give?
Its value is “highest levels of retention”.

CSCC[C@H](NC(=O)CNC(=O)[C@@H](NC(=O)[C@H](CC(C)C)NC(=O)CNC(=O)[C@@H](NC(=O)[C@H](CC(N)=O)NC(=O)[C@H](CCCNC(=N)N)NC(=O)[C@H](C)N)C(C)C)C(C)C)C(=O)N[C@@H](CS)C(=O)N[C@@H](C)C(N)=O [SAV_3] was tested. Which “recovery rate / retention after biopanning against streptavidin (in words)” value (streptavidin [2]) did it give?
Its value is “highest levels of retention”.
